Patent US20150105252A1, “SUBSTITUTED PYRAZOLES AS HERBICIDES” (E I DU PONT DE NEMOURS AND COMPANY, priority 2013, published 2015)

Tests used:
morningglory [1] = assay: Test A preemergence; assay type: in vivo, Ipomoea spp.; details: preemergence
Procedure, shortened: (§1)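 Visual injury ratings, 0 = no effect to 100 = complete control, taken about 10 days after treatment against untreated controls. Test chemicals, in a non-phytotoxic surfactant-containing solvent, were sprayed onto soil preemergence or onto one- to two-leaf plants (2–10 cm) postemergence, in loam–sand soil under greenhouse conditions.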

velvetleaf [2] = assay: Test A postemergence; assay type: in vivo, Abutilon theophrasti
Procedure, shortened: as §1

pigweed [3] = assay: Test A preemergence; assay type: in vivo, Amaranthus retroflexus; details: preemergence
Procedure, shortened: as §1

crabgrass, large [4] = assay: Test A preemergence; assay type: in vivo, Digitaria sanguinalis; details: preemergence
Procedure, shortened: as §1

barnyardgrass [5] = assay: Test B flood; assay type: in vivo, Echinochloa crus-galli; details: 250 g ai/ha, visual rating on 0 to 100 scale (0 no effect, 100 complete control), 13 to 15 days
Procedure, shortened: (§2)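 2-leaf plants; pots flooded 3 cm over soil; compound added to paddy water, depth kept constant. Greenhouse 13–15 d. Visual rating vs controls, 0–100 scale (100 = complete control); dash = no result.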

ducksalad [6] = assay: Test B flood; assay type: in vivo, Heteranthera limosa; details: 250 g ai/ha, visual rating on 0 to 100 scale (0 no effect, 100 complete control), 13 to 15 days
Procedure, shortened: as §2

sedge, umbrella [7] = assay: Test B flood; assay type: in vivo, Cyperus difformis; details: 250 g ai/ha, visual rating on 0 to 100 scale (0 no effect, 100 complete control), 13 to 15 days
Procedure, shortened: as §2

velvetleaf [8] = assay: Test A preemergence; assay type: in vivo, Abutilon theophrasti; details: preemergence
Procedure, shortened: as §1

corn [9] = assay: Test A postemergence; assay type: in vivo, Zea mays
Procedure, shortened: as §1

barnyardgrass [10] = assay: Test A postemergence; assay type: in vivo, Echinochloa crus-galli
Procedure, shortened: as §1

crabgrass, large [11] = assay: Test A postemergence; assay type: in vivo, Digitaria sanguinalis
Procedure, shortened: as §1

sedge, umbrella [12] = assay: Test C flooded paddy test; assay type: in vivo, Cyperus difformis; details: Flood
Procedure, shortened: (§3)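 Ratings were visual and made relative to untreated controls after 13 to 15 greenhouse days.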

rice [13] = assay: Test B flood; assay type: in vivo, Oryza sativa; details: 250 g ai/ha, visual rating on 0 to 100 scale (0 no effect, 100 complete control), 13 to 15 days
Procedure, shortened: as §2

pigweed [14] = assay: Test A postemergence; assay type: in vivo, Amaranthus retroflexus
Procedure, shortened: as §1

wheat [15] = assay: Test A postemergence; assay type: in vivo, Triticum aestivum
Procedure, shortened: as §1

foxtail, giant [16] = assay: Test A preemergence; assay type: in vivo, Setaria faberii; details: preemergence
Procedure, shortened: as §1

ducksalad [17] = assay: Test C flooded paddy test; assay type: in vivo, Heteranthera limosa; details: Flood
Procedure, shortened: as §3

foxtail, giant [18] = assay: Test A postemergence; assay type: in vivo, Setaria faberii
Procedure, shortened: as §1

barnyardgrass [19] = assay: Test C flooded paddy test; assay type: in vivo, Echinochloa crus-galli; details: Flood
Procedure, shortened: as §3

morningglory [20] = assay: Test A postemergence; assay type: in vivo, Ipomoea spp.
Procedure, shortened: as §1

wheat [21] = assay: Test A preemergence; assay type: in vivo, Triticum aestivum; details: preemergence
Procedure, shortened: as §1

rice [22] = assay: Test C flooded paddy test; assay type: in vivo, Oryza sativa; details: Flood
Procedure, shortened: as §3

corn [23] = assay: Test A preemergence; assay type: in vivo, Zea mays; details: preemergence
Procedure, shortened: as §1

barnyardgrass [24] = assay: Test A preemergence; assay type: in vivo, Echinochloa crus-galli; details: preemergence
Procedure, shortened: as §1

common ragweed [25] = assay: Test A preemergence; assay type: in vivo, Ambrosia elation; details: 125 g ai/ha, visual injury, 0 to 100 scale, approx. 10 days
Description: (§4) Seeds of plant species selected from barnyardgrass (Echinochloa crus-galli), kochia (Kochia scoparia), common ragweed (Ambrosia elation), Italian ryegrass (Lolium multiflorum), crabgrass, large (large crabgrass, Digitaria sanguinalis), foxtail, giant (giant foxtail, Setaria faberii), morningglory (Ipomoea spp.), pigweed (redroot pigweed, Amaranthus retroflexus), velvetleaf (Abutilon theophrasti), wheat (Triticum aestivum), and corn (Zea mays) were planted into a blend of loam soil and sand and treated preemergence with a directed soil spray using test chemicals formulated in a non-phytotoxic solvent mixture which included a surfactant.
(§5) At the same time, plants selected from these crop and weed species and also blackgrass (Alopecurus myosuroides), and galium (catchweed bedstraw, Galium aparine) were planted in pots containing the same blend of loam soil and sand and treated with postemergence applications of test chemicals formulated in the same manner. Plants ranged in height from 2 to 10 cm and were in the one- to two-leaf stage for the postemergence treatment. Treated plants and untreated controls were maintained in a greenhouse for approximately 10 days, after which time all treated plants were compared to untreated controls and visually evaluated for injury. Plant response ratings, summarized in Table A, are based on a 0 to 100 scale where 0 is no effect and 100 is complete control. A dash (-) response means no test result.

galium = assay: Test A postemergence; assay type: in vivo, Galium aparine
Description: as §4, §5

Italian ryegrass [26] = assay: Test A preemergence; assay type: in vivo, Lolium multiflorum
Description: as §4, §5

kochia [27] = assay: Test A postemergence; assay type: in vivo, Kochia scoparia
Description: as §4, §5

kochia [28] = assay: Test A preemergence; assay type: in vivo, Kochia scoparia
Description: as §4, §5

common ragweed [29] = assay: Test A postemergence; assay type: in vivo, Ambrosia elation
Description: as §4, §5

blackgrass = assay: Test A postemergence; assay type: in vivo, Alopecurus myosuroides
Description: as §4, §5

Italian ryegrass [30] = assay: Test A postemergence; assay type: in vivo, Lolium multiflorum
Description: as §4, §5

[31] = 125 g ai/ha, visual injury, 0 to 100 scale, approx. 10 days
[32] = 500 g ai/ha, visual injury after approx. 10 days, 0 to 100 scale (0 no effect, 100 complete control)
[33] = Postemergence, 500 g ai/ha, visual rating after approx. 10 days, 0 to 100 scale (0 no effect, 100 complete control)
[34] = postemergence, 125 g ai/ha, about 10 days, visual rating on 0 to 100 scale (0 no effect, 100 complete control)
[35] = 31 g ai/ha, scale 0 to 100 (0 no effect, 100 complete control)
[36] = 62 g ai/ha, scale 0 to 100 (0 no effect, 100 complete control)
[37] = Postemergence, 500 g ai/ha, 0 to 100 scale (0 no effect, 100 complete control)

CCc1cc(C(=O)NCC(F)(F)F)nn1Cc1ccnc(OCC(F)(F)F)c1 [Compound 106]
Morningglory plant response rating (morningglory [1]; [31]): 30 | Morningglory plant response rating (morningglory [1]; [32]): 100 | Velvetleaf plant response rating (velvetleaf [2]; [33]): 70 | Velvetleaf plant response rating (velvetleaf [2]; [34]): 40 | Pigweed plant response rating (pigweed [3]; [31]): 100 | Pigweed plant response rating (pigweed [3]; [32]): 100 | Crabgrass, Large plant response rating (crabgrass, large [4]; [31]): 100 | Crabgrass, Large plant response rating (crabgrass, large [4]; [32]): 100 | Plant response rating, Barnyardgrass (barnyardgrass [5]): 30 | Plant response rating, Ducksalad (ducksalad [6]): 90 | Plant response rating, Sedge, Umbrella (sedge, umbrella [7]): 90 | Velvetleaf plant response rating (velvetleaf [8]; [31]): 10 | Velvetleaf plant response rating (velvetleaf [8]; [32]): 100 | Corn plant response rating (corn [9]; [33]): 60 | Corn plant response rating (corn [9]; [34]): 30 | Barnyardgrass plant response rating (barnyardgrass [10]; [33]): 80 | Barnyardgrass plant response rating (barnyardgrass [10]; [34]): 50 | Crabgrass, Large plant response rating (crabgrass, large [11]; [33]): 90 | Crabgrass, Large plant response rating (crabgrass, large [11]; [34]): 50 | Plant response rating, Sedge, Umbrella (sedge, umbrella [12]; [35]): 70 | Plant response rating, Sedge, Umbrella (sedge, umbrella [12]; [36]): 85 | Plant response rating, Sedge, Umbrella (sedge, umbrella [12]; 125 g ai/ha, scale 0 to 100): 95 | Plant response rating, Sedge, Umbrella (sedge, umbrella [12]; 250 g ai/ha, scale 0 to 100): 98 | Plant response rating, Rice (rice [13]): 20 | Pigweed plant response rating (pigweed [14]; [33]): 100 | Pigweed plant response rating (pigweed [14]; [34]): 90 | Wheat plant response rating (wheat [15]; [33]): 40 | Wheat plant response rating (wheat [15]; [34]): 10 | Foxtail, Giant plant response rating (foxtail, giant [16]; [31]): 100 | Foxtail, Giant plant response rating (foxtail, giant [16]; [32]): 100 | Plant response rating, Ducksalad (ducksalad [17]; [35]): 40 | Plant response rating, Ducksalad (ducksalad [17]; [36]): 50 | Plant response rating, Ducksalad (ducksalad [17]; 125 g ai/ha, scale 0 to 100): 70 | Plant response rating, Ducksalad (ducksalad [17]; 250 g ai/ha, scale 0 to 100): 70 | Foxtail, Giant plant response rating (foxtail, giant [18]; [33]): 80 | Foxtail, Giant plant response rating (foxtail, giant [18]; [34]): 50 | Plant response rating, Barnyardgrass (barnyardgrass [19]; [35]): 0 | Plant response rating, Barnyardgrass (barnyardgrass [19]; [36]): 0 | Plant response rating, Barnyardgrass (barnyardgrass [19]; 125 g ai/ha, scale 0 to 100): 20 | Plant response rating, Barnyardgrass (barnyardgrass [19]; 250 g ai/ha, scale 0 to 100): 30 | Morningglory plant response rating (morningglory [20]; [33]): 100 | Morningglory plant response rating (morningglory [20]; [34]): 50 | Wheat plant response rating (wheat [21]; [31]): 10 | Wheat plant response rating (wheat [21]; [32]): 30 | Plant response rating, Rice (rice [22]; [35]): 0 | Plant response rating, Rice (rice [22]; [36]): 0 | Plant response rating, Rice (rice [22]; 125 g ai/ha, scale 0 to 100): 0 | Plant response rating, Rice (rice [22]; 250 g ai/ha, scale 0 to 100): 0 | Corn plant response rating (corn [23]; [31]): 20 | Corn plant response rating (corn [23]; [32]): 30 | Barnyardgrass plant response rating (barnyardgrass [24]; [31]): 50 | Barnyardgrass plant response rating (barnyardgrass [24]; [32]): 100

CCCNC(=O)c1cc(CC)n(Cc2cc(C(F)(F)F)no2)n1 [Compound 122]
Common Ragweed plant response rating (common ragweed [25]): 10 | Pigweed plant response rating (pigweed [3]; [31]): 60 | Pigweed plant response rating (pigweed [3]; [32]): 100 | Plant response rating, Barnyardgrass (barnyardgrass [5]): 20 | Plant response rating, Ducksalad (ducksalad [6]): 50 | Plant response rating, Sedge, Umbrella (sedge, umbrella [7]): 50 | Galium plant response rating (galium; [37]): 70 | Galium plant response rating (galium; [34]): 10 | Corn plant response rating (corn [9]; [37]): 60 | Corn plant response rating (corn [9]; [34]): 20 | Barnyardgrass plant response rating (barnyardgrass [10]; [37]): 70 | Barnyardgrass plant response rating (barnyardgrass [10]; [34]): 0 | Italian Ryegrass plant response rating (Italian ryegrass [26]; [31]): 0 | Italian Ryegrass plant response rating (Italian ryegrass [26]; [32]): 30 | Kochia plant response rating (kochia [27]; [37]): 90 | Kochia plant response rating (kochia [27]; [34]): 50 | Kochia plant response rating (kochia [28]; [31]): 10 | Kochia plant response rating (kochia [28]; [32]): 90 | Plant response rating, Rice (rice [13]): 30 | Pigweed plant response rating (pigweed [14]; [37]): 40 | Pigweed plant response rating (pigweed [14]; [34]): 30 | Wheat plant response rating (wheat [15]; [37]): 10 | Wheat plant response rating (wheat [15]; [34]): 0 | Foxtail, Giant plant response rating (foxtail, giant [16]; [31]): 20 | Foxtail, Giant plant response rating (foxtail, giant [16]; [32]): 100 | Common Ragweed plant response rating (common ragweed [29]; [37]): 30 | Common Ragweed plant response rating (common ragweed [29]; [34]): 10 | Blackgrass plant response rating (blackgrass; [37]): 80 | Blackgrass plant response rating (blackgrass; [34]): 10 | Foxtail, Giant plant response rating (foxtail, giant [18]; [37]): 90 | Foxtail, Giant plant response rating (foxtail, giant [18]; [34]): 0 | Italian Ryegrass plant response rating (Italian ryegrass [30]; [37]): 50 | Italian Ryegrass plant response rating (Italian ryegrass [30]; [34]): 10 | Barnyardgrass plant response rating (barnyardgrass [24]; [31]): 0 | Barnyardgrass plant response rating (barnyardgrass [24]; [32]): 100
